In patent publication US11185520B2, “Composition comprising at least one water-soluble pharmaceutically acceptable salt of elafibranor having improved intestinal absorption” (NASHPHARM, priority 2016, dated 2021):
≈ marks a conversion by molar mass, not a printed value. Where “and” joins values, the source holds several entries; their conditions need not be identical. Equal values may be shown once.

Columns and labels:
[1] = system: non-alcoholic steatohepatitis NASH; settings: cited from earlier work
[2] = Solubility test on various elafibranor salts; format: physicochemical; settings: for Solubility in aqueous medium / Solubility: listed as Elafibranor (GFT505) Amorphous free basic
[3] = Thermodynamic solubility of elafibranor in aqueous medium; format: physicochemical
Procedure: The thermodynamic solubility of the basic elafibranor is studied over a period of 24 hours and 72 hours in various aqueous buffers in the presence or not of surfactants. Batch number EM0274L2 is used for this work. After 24 hours and 72 hours of incubation at ambient temperature (22°−24° C.), the solutions are sampled and then filtered over 0.2 μm polycarbonate filters in flasks for LCMS analyses, and diluting once in DMSO before stirring for 2 minutes (vortex or sonification).

[4] = all clinical trials; cited from earlier work
[5] = Buffer pH 4.6, ambient temperature (22-24° C.)
[6] = Buffer pH 7.4, ambient temperature (22-24° C.)
[7] = Buffer pH 8.5, ambient temperature (22-24° C.)
[8] = Polyethylene glycol 400, ambient temperature (22-24° C.)
[9] = Propylene glycol, ambient temperature (22-24° C.)

Solubility in aqueous medium ([2]; Buffer pH 4.6, ambient temperature): 44 µg/mL | Solubility in aqueous medium ([2]; Buffer pH 7.4, ambient temperature): 194 µg/mL | Solubility in aqueous medium ([2]; Buffer pH 8.5, ambient temperature): 1701 µg/mL | Solubility ([2]; Polyethylene glycol 400, ambient temperature): 15023 µg/mL | Solubility ([2]; Propylene glycol, ambient temperature): 12905 µg/mL | Solubility (according to Ph. Eur.) ([2]; aqueous medium, ambient temperature, descriptive term): Very low solubility | Solubility after 24 hours [3, 5]: 44 µg/mL (≈ 0.114 mM) | Solubility after 72 hours [3, 5]: 110 μM and 0.042 mg/ml | Solubility after 24 hours [3, 6]: 194 µg/mL (≈ 0.505 mM) | Solubility after 72 hours [3, 6]: 0.234 mg/mL (≈ 0.609 mM) | Solubility after 24 hours [3, 7]: 1701 µg/mL (≈ 4.42 mM) | Solubility after 72 hours [3, 7]: 1.644 mg/mL (≈ 4.28 mM) | Solubility after 24 hours [3, 8]: 15023 µg/mL (≈ 39.1 mM) | Solubility after 72 hours [3, 8]: 15.774 mg/mL (≈ 41 mM) | Solubility after 24 hours [3, 9]: 12905 µg/mL (≈ 33.6 mM) | Solubility after 72 hours [3, 9]: 13.506 mg/mL (≈ 35.1 mM) | Solubility in an aqueous medium ([3]; in words): low | Effect of addition of cosolvent on solubility ([3]; propylene glycol or PEG 400): significantly improves the solubility
SMILES: CSc1ccc(C(=O)/C=C/c2cc(C)c(OC(C)(C)C(=O)O)c(C)c2)cc1 [elafibranor, 2-[2,6 dimethyl-4-[3-[4-(methylthio)phenyl]-3-oxo-1(E)-propenyl]phenoxyl]-2-methylpropanoic acid]
Biochemical markers of hepatic malfunctioning (ALAT, ASAT, γGT, ALP) [1]: improvement | Tolerance profile [4]: very good tolerance profile
